Patent US20170045513A1, “METHODS OF DIAGNOSING CELIAC DISEASE USING IP-10” (ImmusanT, Inc., priority 2014, published 2017)
Non-standard residues stand in square brackets, D forms with d. pGlu = O=C1CC[C@@H](C(=O)O)N1

Experiments:
Type in all cases: cell-based, human
gluten-reactive T cells [1] = test: 96-well plate whole blood cytokine release, IP-10 by MAGPIX multiplex bead assay; conditions: for Percent of maximal response to individual gluten peptides, IP-10: after oral gluten challenge; for IP-10 WB MAGPIX % max Mean: n = 10, blood after oral gluten challenge, individual peptides 5 μM (Peptide 2* of P14, Pepscan: 10 μg/mL (5.45 μM))
gluten-reactive T cells [2] = test: Cytokine release assays taken together (IFNγ ELISpot, whole blood IFNγ and IP-10, in-tube IFNγ ELISA); conditions: for activity relative to Peptide 14 in the cytokine release assays: blood collected after oral gluten challenge
Protocol: Gluten peptide solutions for addition to whole blood were arranged according to standardized templates in sterile 96-well U-bottom plates (30 μL/well). Plates were sealed with adhesive ELISA plate cover slips before the plastic lid was replaced and being frozen at −80° C. Whole blood assay (WBA) “medium” (1% DMSO in 90% PBS and 9% normal saline), mitogen (PHA-L, Sigma-Aldrich #L2769; St Louis Mo.) 100 μg/ml in WBA medium, and CEF diluted to 10 μg/ml in PBS with a final concentration of 1% DMSO were frozen separately in sterile cryovials. 96-well plates and cryovials with frozen incubation solutions were shipped on dry ice to the clinical site where blood was collected and incubations performed. Solutions were thawed at room temperature for 10 min just before being added to whole blood. 96-well plates were thawed while being centrifuged at 300 g to avoid surface condensation. A multi-channel pipette was used to efficiently transfer 25 μL of peptide solutions from the original 96-well plate to corresponding wells in a fresh sterile 96-well U-bottom plate. Once incubation solutions had been added, 225 μL of whole blood was added to each well and the plate transferred to incubate for 24 h at 37° C. 5% CO2. […] Individual peptides were incubated at a final assay concentration of 51.1M. Final concentrations of individual peptides assessed in P3 was 0.05-50 μg/mL, and in P14 and P13 pools 0.025-25 μM. The P71 pool was tested at between 0.005-10 pg/mL, the highest tested concentration being the maximal possible not exceeding 0.1% DMSO. Peptide pools, mitogen, and medium only were assessed in triplicate wells, and on Day-6 individual peptides were assessed in duplicate wells. Incubations were terminated after 24 h, and 96-well plates centrifuged at 300 g for 10 min. A total of approximately 90 to 120 μL of plasma was removed from each well taking care to avoid red cell contamination, and transferred into corresponding wells of two further 96-well plates (one with 30 μL/well and the residual in the second plate). Plasmas were frozen at −80° C. and later shipped on dry ice to the central lab where IP-10 and IFNγ multiplex bead assays were performed according to manufacturer's instructions using 25 μL plasma per well (Milliplex® MAP Human Cytokine/Chemokine Magnetic Bead Panel #HCYTOMAG-60k-02; EMD Millipore Corp., Billerica, Mass. 01821) and analysed with the Luminex® MAGPIX® System xPONENT® software (Luminex Corporation, Austin Tex. 78727). Plasma cytokine levels for each assay condition were expressed as the mean analyte concentration of each of the three replicate incubations. Laboratory staff were unaware of the arrangement of peptide solutions incubated with during assay setup and plate counting.
Aliquots of PBS, P3 peptides diluted in PBS (final concentration in blood 3× 50 or CEF to a final concentration 1 μg/mL were prepared in sterile cryovials (0.11 mL/vial) and stored frozen (−80° C.) until immediately before use. P3, CEF and two PBS aliquots were drawn up in separate sterile 0.3 mL insulin syringes with attached 29G×½″ needle (Terumo, SS*30M2913; Elkton Md. 21921). P3, CEF and one PBS aliquot was injected through the stoppers of three separate QuantiFERON® NIL tubes already containing 1 mL blood, and one aliquot of PBS was injected into a QuantiFERON® MITOGEN tube already containing 1 mL blood. All four tubes containing blood and incubation solution were gently inverted ten-times and transferred to incubate at 37° C. 5% CO2. After for 24 h, tubes were centrifuged 300 g 10 min. Plasma was separated and equal volumes placed in two 1.5 mL cryovials. Frozen plasmas were transferred to the central lab where IFNγ levels were measured in triplicate 50 μL samples by ELISA (MABtech Human IFN-γ ELISA development kit HRP, 3420-1H-6; capture mAb 1-D1K). […]

gluten-reactive T cells [3] = test: 96-well plate whole blood cytokine release, IFNγ by MAGPIX multiplex bead assay; conditions: for Percent of maximal response to individual gluten peptides, IFNg: after oral gluten challenge; for IFNγ WB MAGPIX % max Mean: n = 8, blood after oral gluten challenge, individual peptides 5 μM (Peptide 2* of P14, Pepscan: 10 μg/mL (5.45 μM))

Substance | Percent of maximal response to individual gluten peptides, IP-10 (gluten-reactive T cells [1]; Subject 1, Max. 2331 pg/mL) | Percent of maximal response to individual gluten peptides, IP-10 (gluten-reactive T cells [1]; Subject 2, Max. 3646 pg/mL) | Percent of maximal response to individual gluten peptides, IP-10 (gluten-reactive T cells [1]; Subject 3, Max. 9492 pg/mL) | Percent of maximal response to individual gluten peptides, IP-10 (gluten-reactive T cells [1]; Subject 4, Max. 9463 pg/mL) | Percent of maximal response to individual gluten peptides, IP-10 (gluten-reactive T cells [1]; Subject 5, Max. 9336 pg/mL) | Percent of maximal response to individual gluten peptides, IP-10 (gluten-reactive T cells [1]; Subject 6, Max. 5863 pg/mL) | Percent of maximal response to individual gluten peptides, IP-10 (gluten-reactive T cells [1]; Subject 7, Max. 2330 pg/mL) | Percent of maximal response to individual gluten peptides, IP-10 (gluten-reactive T cells [1]; Subject 8, Max. 4019 pg/mL) | Percent of maximal response to individual gluten peptides, IP-10 (gluten-reactive T cells [1]; Subject 9, Max. 8349 pg/mL) | Percent of maximal response to individual gluten peptides, IP-10 (gluten-reactive T cells [1]; Subject 10, Max. 8922 pg/mL) | IP-10 WB MAGPIX % max Mean (gluten-reactive T cells [1]) [% max] | Percent of maximal response to individual gluten peptides, IFNg (gluten-reactive T cells [3]; Subject 2, Max. 116 pg/mL) | Percent of maximal response to individual gluten peptides, IFNg (gluten-reactive T cells [3]; Subject 3, Max. 799 pg/mL) | Percent of maximal response to individual gluten peptides, IFNg (gluten-reactive T cells [3]; Subject 4, Max. 136 pg/mL) | Percent of maximal response to individual gluten peptides, IFNg (gluten-reactive T cells [3]; Subject 6, Max. 72 pg/mL) | Percent of maximal response to individual gluten peptides, IFNg (gluten-reactive T cells [3]; Subject 7, Max. 17 pg/mL) | Percent of maximal response to individual gluten peptides, IFNg (gluten-reactive T cells [3]; Subject 8, Max. 47 pg/mL) | Percent of maximal response to individual gluten peptides, IFNg (gluten-reactive T cells [3]; Subject 9, Max. 67 pg/mL) | Percent of maximal response to individual gluten peptides, IFNg (gluten-reactive T cells [3]; Subject 10, Max. 229 pg/mL) | IFNγ WB MAGPIX % max Mean (gluten-reactive T cells [3]) | further results
(pE)QPFPQPELPYPYPQ-amide ([pGlu]QPFPQPELPYPYPQ-NH2; SMILES CC(C)C[C@H](NC(=O)[C@H](CCC(=O)O)NC(=O)[C@@H]1CCCN1C(=O)[C@H](CCC(N)=O)NC(=O)[C@@H]1CCCN1C(=O)[C@H](Cc1ccccc1)NC(=O)[C@@H]1CCCN1C(=O)[C@H](CCC(N)=O)NC(=O)[C@@H]1CCC(=O)N1)C(=O)N1CCC[C@H]1C(=O)N[C@@H](Cc1ccc(O)cc1)C(=O)N1CCC[C@H]1C(=O)N[C@@H](Cc1ccc(O)cc1)C(=O)N1CCC[C@H]1C(=O)N[C@@H](CCC(N)=O)C(N)=O) [Peptide 16] | 16 % of max | 45 % of max | ≥ 100 % of max | 69 % of max | 35 % of max | 4 % of max | 800 % of max | 1 % of max | 60 % of max | 11 % of max | 42 | 65 % of max | 13 % of max | 16 % of max | 10 % of max | 100 % of max | 0 % of max | 39 % of max | 2 % of max | 31 % max | activity relative to Peptide 14 in the cytokine release assays (gluten-reactive T cells [2]): no more than two-thirds as active as Peptide 14
(pE)QPFPQPEQPTPIQPEQP-amide ([pGlu]QPFPQPEQPTPIQPEQP-NH2; SMILES CC[C@H](C)[C@H](NC(=O)[C@@H]1CCCN1C(=O)[C@@H](NC(=O)[C@@H]1CCCN1C(=O)[C@H](CCC(N)=O)NC(=O)[C@H](CCC(=O)O)NC(=O)[C@@H]1CCCN1C(=O)[C@H](CCC(N)=O)NC(=O)[C@@H]1CCCN1C(=O)[C@H](Cc1ccccc1)NC(=O)[C@@H]1CCCN1C(=O)[C@H](CCC(N)=O)NC(=O)[C@@H]1CCC(=O)N1)[C@@H](C)O)C(=O)N[C@@H](CCC(N)=O)C(=O)N1CCC[C@H]1C(=O)N[C@@H](CCC(=O)O)C(=O)N[C@@H](CCC(N)=O)C(=O)N1CCC[C@H]1C(N)=O) [Peptide 5] | 0 % of max | 13 % of max | ≥ 100 % of max | 46 % of max | 13 % of max | 1 % of max | 2 % of max | 4 % of max | 10 % of max | 60 % of max | 25 | 39 % of max | 5 % of max | 13 % of max | 1 % of max | 6 % of max | 0 % of max | 0 % of max | 27 % of max | 11 (11) % max | activity relative to Peptide 14 in the cytokine release assays (gluten-reactive T cells [2]): from one-half to one-eighth as active as Peptide 14
(pE)PEQPEQPFPEQPQQ-amide ([pGlu]PEQPEQPFPEQPQQ-NH2; SMILES NC(=O)CC[C@H](NC(=O)[C@H](CCC(N)=O)NC(=O)[C@@H]1CCCN1C(=O)[C@H](CCC(N)=O)NC(=O)[C@H](CCC(=O)O)NC(=O)[C@@H]1CCCN1C(=O)[C@H](Cc1ccccc1)NC(=O)[C@@H]1CCCN1C(=O)[C@H](CCC(N)=O)NC(=O)[C@H](CCC(=O)O)NC(=O)[C@@H]1CCCN1C(=O)[C@H](CCC(N)=O)NC(=O)[C@H](CCC(=O)O)NC(=O)[C@@H]1CCCN1C(=O)[C@@H]1CCC(=O)N1)C(N)=O) [Peptide 11] | 0 % of max | 0 % of max | 6 % of max | 2 % of max | 0 % of max | 0 % of max | 0 % of max | 0 % of max | 0 % of max | 0 % of max | 1 | 0 % of max | 0 % of max | 0 % of max | 0 % of max | 0 % of max | 0 % of max | 0 % of max | 0 % of max | 0 % max | cytokine release / immunogenicity of individual peptide (gluten-reactive T cells [2]; HLA-DQ2.5+ celiac disease subjects after gluten challenge): weak or not distinguishable from medium alone
